Results reported in BindingDB's records for doi:10.1016/j.bmc.2010.03.023 (Swedish University Agricultural Sciences, 2010).

Tests used:
Thymidine kinase = biological target: T1, Thymidine kinase (Ureaplasma parvum serovar 3 (strain ATCC 700970), UniProt Q9PPP5); test: Inhibition of Ureaplasma parvum thymidine kinase by liquid scintillation counting
T1 sequence (Q9PPP5 whole entry): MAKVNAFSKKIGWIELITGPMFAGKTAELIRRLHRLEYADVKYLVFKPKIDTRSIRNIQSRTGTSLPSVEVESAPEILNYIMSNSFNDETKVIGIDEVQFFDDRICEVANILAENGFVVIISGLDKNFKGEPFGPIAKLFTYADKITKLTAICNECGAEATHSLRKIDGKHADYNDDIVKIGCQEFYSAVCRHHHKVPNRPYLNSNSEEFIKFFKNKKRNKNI

[1] = biological target: T2, Thymidine kinase, cytosolic (Homo sapiens, UniProt P04183); test: Inhibition of human TK1 by liquid scintillation counting
T2 sequence (P04183 whole entry): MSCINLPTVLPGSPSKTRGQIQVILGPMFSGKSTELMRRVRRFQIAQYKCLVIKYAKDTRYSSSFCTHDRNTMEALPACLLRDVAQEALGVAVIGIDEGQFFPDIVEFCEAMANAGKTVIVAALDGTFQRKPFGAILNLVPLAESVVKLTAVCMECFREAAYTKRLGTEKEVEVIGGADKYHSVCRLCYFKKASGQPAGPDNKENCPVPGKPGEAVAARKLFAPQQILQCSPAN

Row | IC50 (Thymidine kinase) [µM] | IC50 [1] [µM] | Compound
1 | 120 | – | Cc1cn([C@H]2C[C@H](n3cc(CCc4ccccc4)nn3)[C@@H](CO)O2)c(=O)[nH]c1=O [3'-(4-(2-Phenyl-ethyl)-1,2,3-triazole-1-yl)-2'-deoxythymidine]
2 | 318 | 114 | Cc1cn([C@H]2C[C@H](n3cc(C(C)(C)C)nn3)[C@@H](CO)O2)c(=O)[nH]c1=O [3'-(4-tert-Butyl-1,2,3-triazol-1-yl)-3'-deoxythymidine]
3 | 200 | – | Cc1cn([C@H]2C[C@H](n3cc(-c4ccccc4)nn3)[C@@H](CO)O2)c(=O)[nH]c1=O [3'-Deoxy-3'-(4-phenyl-1,2,3-triazol-1-yl)-beta-D-thymidine]
4 | 211 | – | Cc1cn([C@H]2C[C@H](n3cc(-c4ccccn4)nn3)[C@@H](CO)O2)c(=O)[nH]c1=O [3'-Deoxy-3'-(4-pyridin-2-yl-1,2,3-triazol-1-yl)-beta-D-thymidine]
